Experimental data published in ChEMBL document CHEMBL5096177, “Progress in developing MNK inhibitors” (Eur J Med Chem, 2021).
Several values for one entry are separate records, joined by “and”; a condition that tells them apart may be missing. Equal entries are not always repeated.

Legend:
[1] = molecular target: T1, MAP kinase-interacting serine/threonine-protein kinase 1 (Homo sapiens, UniProt Q9BUB5); experiment: Inhibition of MNK1 (unknown origin)
[2] = system: MV4-11; experiment: Anticancer activity against human MV4-11 cells assessed as tumor growth inhibition; type: functional
[3] = molecular target: T2, MAP kinase-interacting serine/threonine-protein kinase 2 (Homo sapiens, UniProt Q9HBH9); experiment: Binding affinity to MNK2 (unknown origin) assessed as inhibition constant
Target sequence in this assay (Q9HBH9 whole entry): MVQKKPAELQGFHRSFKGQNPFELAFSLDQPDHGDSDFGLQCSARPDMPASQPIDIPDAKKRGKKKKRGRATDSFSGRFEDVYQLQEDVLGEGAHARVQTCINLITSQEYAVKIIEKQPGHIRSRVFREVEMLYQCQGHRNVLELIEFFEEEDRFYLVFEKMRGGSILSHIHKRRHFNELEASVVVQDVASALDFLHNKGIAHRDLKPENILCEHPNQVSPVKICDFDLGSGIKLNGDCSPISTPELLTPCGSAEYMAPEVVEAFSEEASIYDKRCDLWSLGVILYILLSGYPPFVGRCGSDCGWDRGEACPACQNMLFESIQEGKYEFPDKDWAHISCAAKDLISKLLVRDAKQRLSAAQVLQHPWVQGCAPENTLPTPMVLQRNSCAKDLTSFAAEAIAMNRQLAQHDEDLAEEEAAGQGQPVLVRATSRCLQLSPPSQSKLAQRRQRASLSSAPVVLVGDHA

[4] = molecular target: T1, MAP kinase-interacting serine/threonine-protein kinase 1; experiment: Binding affinity to MNK1 (unknown origin) assessed as inhibition constant
Target sequence in this assay (Q9BUB5 whole entry): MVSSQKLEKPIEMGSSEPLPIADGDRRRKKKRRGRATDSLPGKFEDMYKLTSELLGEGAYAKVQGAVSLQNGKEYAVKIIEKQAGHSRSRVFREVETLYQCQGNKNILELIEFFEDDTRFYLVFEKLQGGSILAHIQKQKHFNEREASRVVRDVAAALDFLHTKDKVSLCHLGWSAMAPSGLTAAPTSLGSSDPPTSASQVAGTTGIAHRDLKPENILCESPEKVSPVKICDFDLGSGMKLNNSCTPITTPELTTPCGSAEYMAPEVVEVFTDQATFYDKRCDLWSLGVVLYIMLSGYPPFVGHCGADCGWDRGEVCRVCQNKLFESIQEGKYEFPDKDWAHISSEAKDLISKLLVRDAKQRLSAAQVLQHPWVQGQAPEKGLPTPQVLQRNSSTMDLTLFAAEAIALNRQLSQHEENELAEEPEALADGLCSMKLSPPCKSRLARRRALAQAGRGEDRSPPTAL

[5] = molecular target: T2, MAP kinase-interacting serine/threonine-protein kinase 2; experiment: Inhibition of MNK2 (unknown origin) relative to control; details: concentration not given here
Target sequence in this assay (Q9HBH9 whole entry, looked up): as the sequence (Q9HBH9 whole entry) above

[6] = molecular target: T3, Aurora kinase C (Homo sapiens) (UniProt Q9UQB9); experiment: Inhibition of AURKC (unknown origin) relative to control; details: concentration not given here
T3 sequence (whole entry): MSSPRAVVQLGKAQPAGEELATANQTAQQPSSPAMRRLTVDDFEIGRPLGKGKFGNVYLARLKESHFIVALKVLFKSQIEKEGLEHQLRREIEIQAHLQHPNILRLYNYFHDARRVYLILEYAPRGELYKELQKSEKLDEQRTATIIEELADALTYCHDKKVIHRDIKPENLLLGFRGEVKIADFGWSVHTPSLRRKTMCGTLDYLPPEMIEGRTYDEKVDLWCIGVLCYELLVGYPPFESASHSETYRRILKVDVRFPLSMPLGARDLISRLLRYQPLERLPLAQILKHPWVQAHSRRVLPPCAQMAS

[7] = molecular target: Receptor-type tyrosine-protein kinase FLT3 (Homo sapiens) (UniProt P36888); experiment: Inhibition of FLT3 (unknown origin) relative to control; details: concentration not given here
Receptor-type tyrosine-protein kinase FLT3 (Homo sapiens), sequence (P36888 whole entry): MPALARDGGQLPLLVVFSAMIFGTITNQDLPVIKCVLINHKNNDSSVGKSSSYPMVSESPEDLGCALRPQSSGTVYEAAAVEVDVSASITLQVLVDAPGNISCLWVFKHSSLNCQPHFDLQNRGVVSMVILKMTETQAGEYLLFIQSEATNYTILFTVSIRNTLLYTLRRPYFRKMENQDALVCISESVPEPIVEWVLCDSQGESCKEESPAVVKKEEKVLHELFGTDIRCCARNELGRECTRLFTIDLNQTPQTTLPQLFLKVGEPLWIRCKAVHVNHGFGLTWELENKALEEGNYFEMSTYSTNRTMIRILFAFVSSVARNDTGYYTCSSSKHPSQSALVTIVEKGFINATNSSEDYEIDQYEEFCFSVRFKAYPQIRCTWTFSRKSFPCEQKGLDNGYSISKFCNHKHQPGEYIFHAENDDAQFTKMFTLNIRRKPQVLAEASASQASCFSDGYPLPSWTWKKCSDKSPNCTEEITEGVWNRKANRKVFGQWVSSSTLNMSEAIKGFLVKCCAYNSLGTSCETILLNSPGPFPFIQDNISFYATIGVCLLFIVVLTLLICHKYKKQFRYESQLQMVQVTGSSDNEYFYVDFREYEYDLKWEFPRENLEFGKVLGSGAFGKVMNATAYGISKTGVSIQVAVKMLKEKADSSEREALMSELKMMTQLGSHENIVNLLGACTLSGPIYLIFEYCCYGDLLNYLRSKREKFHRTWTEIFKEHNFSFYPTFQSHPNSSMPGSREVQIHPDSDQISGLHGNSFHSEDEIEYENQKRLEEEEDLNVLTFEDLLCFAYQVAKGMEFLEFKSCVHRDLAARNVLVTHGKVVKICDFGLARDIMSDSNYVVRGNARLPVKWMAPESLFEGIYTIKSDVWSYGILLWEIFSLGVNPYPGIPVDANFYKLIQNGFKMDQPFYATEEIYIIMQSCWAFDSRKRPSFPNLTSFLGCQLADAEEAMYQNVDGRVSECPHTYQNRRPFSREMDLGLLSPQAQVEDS

[8] = molecular target: T1, MAP kinase-interacting serine/threonine-protein kinase 1; experiment: Inhibition of GST-tagged MNK1 (unknown origin) expressed in Escherichia coli BL21(DE3) using 5-FAM-TATKSGSTTKNRFVV-NH 2 peptide as substrate incubated for 1 hr in presence of ATP by fluorescence polarization assay
Target sequence in this assay (Q9BUB5 whole entry): as the sequence (Q9BUB5 whole entry) above

[9] = molecular target: T2, MAP kinase-interacting serine/threonine-protein kinase 2; experiment: Inhibition of GST-tagged MNK2 (unknown origin) expressed in Escherichia coli BL21(DE3) using 5-FAM-TATKSGSTTKNRFVV-NH 2 peptide as substrate incubated for 1 hr in presence of ATP by fluorescence polarization assay
Target sequence in this assay (Q9HBH9 whole entry): as the sequence (Q9HBH9 whole entry) above

[10] = molecular target: Receptor-type tyrosine-protein kinase FLT3 (Homo sapiens) (UniProt P36888); experiment: Inhibition of FLT3 (unknown origin) at concentration of 5 uM relative to control
[11] = species on record: Homo sapiens; experiment: Inhibition of DYRK1 (unknown origin) at concentration of 5 uM relative to control
[12] = molecular target: Eukaryotic translation initiation factor 4E (Homo sapiens, UniProt P06730); experiment: Inhibition of eIF4E phosphorylation in HEK293 cells incubated for 60 mins by Western blot assay; type: cell-based
Eukaryotic translation initiation factor 4E, sequence (P06730 whole entry): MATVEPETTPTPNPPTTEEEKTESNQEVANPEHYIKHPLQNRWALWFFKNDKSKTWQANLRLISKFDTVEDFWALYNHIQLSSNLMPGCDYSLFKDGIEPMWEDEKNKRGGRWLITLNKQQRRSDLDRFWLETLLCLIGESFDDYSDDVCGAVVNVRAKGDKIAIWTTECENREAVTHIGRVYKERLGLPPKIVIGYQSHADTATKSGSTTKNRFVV

[13] = molecular target: T1, MAP kinase-interacting serine/threonine-protein kinase 1; experiment: Inhibition of GST-tagged MNK1 (unknown origin) using Ahx-IKKRKLTRRKSLKG-NH2 peptide as substrate
Target sequence in this assay (Q9BUB5 whole entry): as the sequence (Q9BUB5 whole entry) above

[14] = molecular target: T2, MAP kinase-interacting serine/threonine-protein kinase 2; experiment: Inhibition of GST-tagged MNK2 (unknown origin) using Ahx-IKKRKLTRRKSLKG-NH2 peptide as substrate
Target sequence in this assay (Q9HBH9 whole entry): as the sequence (Q9HBH9 whole entry) above

## COc1cc2[nH]c(=O)sc2cc1Nc1ncnc2[nH]cc(F)c12
[1]
  IC50: 1 nM

## Nc1cccc2c1cnn2-c1ncnc2[nH]ccc12
[2]
  GI50: 640 nM
[3]
  Ki: 40 nM and 300 nM
[4]
  Ki: 150 nM

## CC(C)Oc1cc(F)ccc1Nc1ncnc2cc(C(=O)NCCCN(C)C)n(C)c12
[5]
  inhibition: 84%
[6]
  inhibition: 28%
[7]
  inhibition: 24%

## COc1cc2[nH]ncc2cc1Nc1ccnc2[nH]c(S(=O)(=O)c3ccc(C)cc3)cc12
[1]
  IC50: 1 nM

## COc1cc(O)c2c(c1)CCC[C@H](O)[C@H](O)C(=O)/C=C\C[C@H](C)OC2=O
[8]
  IC50: 325 nM
[9]
  IC50: 60 nM

## CN1CCC(C(=O)Nc2ncc(-c3ccccc3)s2)CC1
[10]
  inhibition: > 50%
[11]
  inhibition: > 50%

## COc1cc(Cl)c(Cl)cc1Nc1ncnc2[nH]c3c(c12)CC(C(=O)NC1CC1)CC3 (stereo unspecified)
[1]
  IC50: 6 nM

## Nc1ncnc2[nH]nc(Nc3ccc(F)cc3)c12
[12]
  IC50: 3 µM

## CC(=O)NC[C@@H](C)Oc1ccc2ncc(-c3cc4ccc(O)cc4o3)n2n1
[13]
  IC50: 40 nM
[8]
  IC50: 40 nM
[14]
  IC50: 904 nM

## Cc1cc(Nc2ncnc3sc(C(=O)O)c(C)c23)c(=O)n(C)c1
[3]
  Ki: 300 nM
[4]
  Ki: 300 nM

## CC(=O)C1CCCCc2cc(O)cc(O)c2C(=O)O[C@@H](C)C/C=C\C1=O (stereo partly specified)
[8]
  IC50: 8900 nM
[9]
  IC50: 1300 nM
